Assay results: patent publication US20120015907A1, “Furopyridine compounds and uses thereof” (NOVARTIS AG, priority 2010, published 2012)

Legend:
HCV polymerase = molecular target: T1, HCV polymerase (Hepatitis C virus genotype 1b, UniProt Q9WMX2); assay: biochemical; conditions: polymerase assay of Biological Example 1; read-out: NS5B polymerase IC50
T1 construct: (His)6 (C)

[1] = tested on: HCV replicon I389luc-ubi-neo/NS3-3'/ET in ET (Huh-lucubineo-ET) cells; assay: Replicon assay (Biological Example 2), luciferase read-out; assay type: cell-based; conditions: Hepatitis C virus, luciferase activity 48 hours after compound addition
How it was run: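 ET cells stably carry the replicon with adaptive mutations E1202G, […] and K1846T. Compound is added 24 h after plating at 0.1 nM–50 μM final (10-point, 3-fold dilutions) with 0.5% DMSO, and luciferase is read 48 h later. EC50 comes from a Hill-equation fit of % inhibition versus no-compound control.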

CNC(=O)c1c(-c2ccc(F)cc2)oc2nc3c(cc12)C(C)OCCN3S(C)(=O)=O (stereo not shown) [Example 36.2, 2-(4-Fluoro-phenyl)-9-methanesulfonyl-5-methyl-5,7,8,9-tetrahydro-1,6-dioxa-9,10-diaza-cyclohepta[f]indene-3-carboxylic acid methylamide]
IC50 (HCV polymerase): 35 nM
IC50 [1]: ≤ 100 nM

CNC(=O)c1c(-c2ccc(F)cc2)oc2nc(N(C)S(C)(=O)=O)c(CCCCS(=O)(=O)CCC(=O)O)cc12 [Example 4.91, 3-(4-(2-(4-fluorophenyl)-3-(methylcarbamoyl)-6-(N-methylmethylsulfonamido)furo[2,3-b]pyridin-5-yl)butylsulfonyl)propanoic acid]
IC50 (HCV polymerase): 10 nM
IC50 [1]: ≥ 5000 nM

CNC(=O)c1c(-c2ccc(Cl)cc2)oc2nc(N(C)S(C)(=O)=O)c(C3CC3)cc12 [Example 2.96]
IC50 (HCV polymerase): 24 nM
IC50 [1]: ≤ 100 nM

CNC(=O)c1c(-c2ccc(F)cc2)oc2nc(N(CCCS(C)(=O)=O)S(C)(=O)=O)c(C3CC3)cc12 [Example 24.01]
IC50 (HCV polymerase): 1 nM
IC50 [1]: ≤ 100 nM

CNC(=O)c1c(-c2ccc(C)cc2)oc2nc(N(CCCC3(C(=O)O)CCCC3)S(C)(=O)=O)c(C3CC3)cc12 [Example 28, 1-(3-(N-(5-cyclopropyl-3-(methylcarbamoyl)-2-p-tolylfuro[2,3-b]pyridin-6-yl)methylsulfonamido)propyl) cyclopentanecarboxylic acid]
IC50 (HCV polymerase): 1 nM
IC50 [1]: ≤ 100 nM

CNC(=O)c1c(-c2ccc(C3CC3)cc2)oc2nc(N(CCCCS(C)(=O)=O)S(C)(=O)=O)c(C3CC3)cc12 [Example 25.9, 5-cyclopropyl-2-(4-cyclopropylphenyl)-N-methyl-6-(N-(4-(methylsulfonyl)butyl)methylsulfonamido)furo[2,3-b]pyridine-3-carboxamide]
IC50 (HCV polymerase): 3 nM
IC50 [1]: ≤ 100 nM

CNC(=O)c1c(-c2ccc(C)cc2)oc2nc(N(CCCCS(C)(=O)=O)S(C)(=O)=O)c(I)cc12 [Example 18.996, 5-iodo-N-methyl-6-(N-(4-(methylsulfonyl)butyl)methylsulfonamido)-2-p-tolylfuro[2,3-b]pyridine-3-carboxamide]
IC50 (HCV polymerase): 4 nM
IC50 [1]: ≤ 100 nM

CNC(=O)c1c(-c2ccc(C)cc2)oc2nc(N(CCC3CCS(=O)(=O)C3)S(C)(=O)=O)c(C3CC3)cc12 (stereo not shown) [Example 26.1, 5-Cyclopropyl-6-{[2-(1,1-dioxo-tetrahydro-thiophen-3-yl)-ethyl]-methanesulfonyl-amino}-2-p-tolyl-furo[2,3-b]pyridine-3-carboxylic acid methylamide]
IC50 (HCV polymerase): 1 nM
IC50 [1]: ≤ 100 nM

CNC(=O)c1c(-c2ccc(Cl)cc2F)oc2nc(N(C)S(C)(=O)=O)c(C3CC3)cc12 [Example 2.97]
IC50 (HCV polymerase): 4 nM
IC50 [1]: ≤ 100 nM

CNC(=O)c1c(-c2ccc(F)cc2)oc2nc(N(C)S(C)(=O)=O)c(CCCCC(=O)O)cc12 [Example 4, 5-(2-(4-fluorophenyl)-3-(methylcarbamoyl)-6-(N-methylmethylsulfonamido)furo[2,3-b]pyridin-5-yl)pentanoic acid]
IC50 (HCV polymerase): 49 nM
IC50 [1]: ≥ 5000 nM

CCc1cc2c(C(=O)NC)c(-c3ccc(F)cc3)oc2nc1N(CCCCS(C)(=O)=O)S(C)(=O)=O [Example 23, 5-Ethyl-2-(4-fluoro-phenyl)-6-[methanesulfonyl-(4-methanesulfonyl-butyl)-amino]-furo[2,3-b]pyridine-3-carboxylic acid methylamide]
IC50 (HCV polymerase): 22 nM
IC50 [1]: ≤ 100 nM

CNC(=O)c1c(-c2ccc(F)cc2)oc2nc3c(cc12)C(C)CCCCN3S(C)(=O)=O (stereo not shown) [Example 36.3, 2-(4-Fluoro-phenyl)-10-methanesulfonyl-5-methyl-5,6,7,8,9,10-hexahydro-1-oxa-10,11-diaza-cycloocta[f]indene-3-carboxylic acid methylamide]
IC50 (HCV polymerase): 70 nM
IC50 [1]: ≤ 100 nM

CCc1cc2c(C(=O)NC)c(-c3ccc(F)cc3)oc2nc1N(CCCCS(=O)(=O)C(C)C)S(C)(=O)=O [Example 23.92, 5-ethyl-2-(4-fluorophenyl)-6-(N-(4-(isopropylsulfonyl)butyl)methylsulfonamido)-N-methylfuro[2,3-b]pyridine-3-carboxamide]
IC50 (HCV polymerase): 11 nM
IC50 [1]: ≤ 100 nM

CNC(=O)c1c(-c2ccc(F)cc2)oc2nc(N(C)S(C)(=O)=O)c(C#CCCC(=O)O)cc12 [Example 5, 5-(2-(4-fluorophenyl)-3-(methylcarbamoyl)-6-(N-methylmethylsulfonamido)furo[2,3-b]pyridin-5-yl)pent-4-ynoic acid]
IC50 (HCV polymerase): 256 nM
IC50 [1]: ≥ 5000 nM

CCc1cc2c(C(=O)NC)c(-c3ccc(F)cc3)oc2nc1N(CCCCC(C)=O)S(C)(=O)=O [Example 22.92, 5-ethyl-2-(4-fluorophenyl)-N-methyl-6-(N-(5-oxohexyl)methylsulfonamido)furo[2,3-b]pyridine-3-carboxamide]
IC50 (HCV polymerase): 32 nM
IC50 [1]: ≤ 100 nM

CCc1cc2c(C(=O)NC)c(-c3ccc(F)cc3)oc2nc1N(CCCC(C)=O)S(C)(=O)=O [Example 22.95, 5-ethyl-2-(4-fluorophenyl)-N-methyl-6-(N-(4-oxopentyl)methylsulfonamido)furo[2,3-b]pyridine-3-carboxamide]
IC50 (HCV polymerase): 40 nM
IC50 [1]: ≤ 100 nM

CNC(=O)c1c(-c2ccc(F)cc2)oc2nc3c(cc12)[C@@H](C)C[C@H](O)CN3S(C)(=O)=O (single isomer, unassigned) [Example 34]
IC50 (HCV polymerase): 9 nM
IC50 [1]: ≤ 100 nM

CNC(=O)c1c(-c2ccc(Cl)cc2F)oc2nc(N(C)S(C)(=O)=O)c(I)cc12 [Example 2.95, 2-(4-chloro-2-fluorophenyl)-5-iodo-N-methyl-6-(N-methylmethylsulfonamido)furo[2,3-b]pyridine-3-carboxamide]
IC50 (HCV polymerase): 8 nM
IC50 [1]: ≤ 100 nM

CNC(=O)c1c(-c2ccc(Cl)cc2)oc2nc(N(CCCC3CCCS3(=O)=O)S(C)(=O)=O)c(I)cc12 (stereo not shown) [Example 18.98, 2-(4-Chloro-phenyl)-6-{[3-(1,1-dioxo-tetrahydrothiophen-2-yl)-propyl]-methanesulfonyl-amino}-5-iodo-furo[2,3-b]pyridine-3-carobxylic acid methylamide]
IC50 (HCV polymerase): 4 nM
IC50 [1]: ≤ 100 nM

CNC(=O)c1c(-c2ccc(C3CC3)cc2)oc2nc(N(CCCS(C)(=O)=O)S(C)(=O)=O)c(C3CC3)cc12 [Example 24.9, 5-cyclopropyl-2-(4-cyclopropylphenyl)-N-methyl-6-(N-(3-(methylsulfonyl)propyl)methylsulfonamido)furo[2,3-b]pyridine-3-carboxamide]
IC50 (HCV polymerase): 3 nM
IC50 [1]: ≤ 100 nM

CNC(=O)c1c(-c2ccc(F)cc2)oc2nc(N(CCCC3CCCS3(=O)=O)S(C)(=O)=O)c(C3CC3)cc12 (racemic) [Example 24.4]
IC50 (HCV polymerase): 9 nM
IC50 [1]: ≤ 100 nM

CCc1cc2c(C(=O)NC)c(-c3ccc(F)cc3)oc2nc1N(CCCN1CCCCS1(=O)=O)S(C)(=O)=O [Example 23.7, 6-{[3-(1,1-Dioxo-[1,2]thiazinan-2-yl)-propyl]-methanesulfonyl-amino}-5-ethyl-2-(4-fluorophenyl)-furo[2,3-b]pyridine-3-carboxylic acid methylamide]
IC50 (HCV polymerase): 5 nM
IC50 [1]: ≤ 100 nM

CNC(=O)c1c(-c2ccc(C)cc2)oc2nc(N(CCCC(C(=O)O)c3ccccc3)S(C)(=O)=O)c(C3CC3)cc12 (stereo not shown) [Example 28.5, 5-(N-(5-cyclopropyl-3-(methylcarbamoyl)-2-p-tolylfuro[2,3-b]pyridin-6-yl)methylsulfonamido)-2-phenylpentanoic acid]
IC50 (HCV polymerase): 1 nM
IC50 [1]: ≤ 100 nM

CCc1cc2c(C(=O)NC)c(-c3ccc(F)cc3)oc2nc1N(CCCS(=O)(=O)C(C)C)S(C)(=O)=O [Example 23.91, 5-ethyl-2-(4-fluorophenyl)-6-(N-(3-(isopropylsulfonyl)propyl)methylsulfonamido)-N-methylfuro[2,3-b]pyridine-3-carboxamide]
IC50 (HCV polymerase): 18 nM
IC50 [1]: ≤ 100 nM

CNC(=O)c1c(-c2ccc(C)cc2)oc2nc(N(CCCS(C)(=O)=O)S(C)(=O)=O)c(C3CC3)cc12 [Example 25.3, 5-cyclopropyl-N-methyl-6-(N-(3-(methylsulfonyl)propyl)methylsulfonamido)-2-p-tolylfuro[2,3-b]pyridine-3-carboxamide]
IC50 (HCV polymerase): 1 nM
IC50 [1]: ≤ 100 nM

CNC(=O)c1c(-c2ccc(F)cc2)oc2nc(N(C)S(C)(=O)=O)c(C(C)(O)CO)cc12 (stereo not shown) [Example 9, 5-(1,2-dihydroxypropan-2-yl)-2-(4-fluorophenyl)-N-methyl-6-(N-methylmethylsulfonamido)furo[2,3-b]pyridine-3-carboxamide]
IC50 (HCV polymerase): 2320 nM
IC50 [1]: ≥ 5000 nM

CNC(=O)c1c(-c2ccc(F)cc2)oc2nc(N(CCCOCCOC)S(C)(=O)=O)c(C3CC3)cc12 [Example 25, 5-cyclopropyl-2-(4-fluorophenyl)-6-(N-(3-(2-methoxyethoxy)propyl)methylsulfonamido)-N-methylfuro[2,3-b]pyridine-3-carboxamide]
IC50 (HCV polymerase): 5 nM
IC50 [1]: ≤ 100 nM

CCc1ccc(-c2oc3nc(N(CCCCC(=O)O)S(C)(=O)=O)c(C4CC4)cc3c2C(=O)NC)cc1 [Example 27.8, 5-(N-(5-cyclopropyl-2-(4-ethylphenyl)-3-(methylcarbamoyl)furo[2,3-b]pyridin-6-yl)methylsulfonamido) pentanoic acid]
IC50 (HCV polymerase): 1 nM
IC50 [1]: ≤ 100 nM

CNC(=O)c1c(-c2ccc(F)cc2)oc2nc(N(CCCC3CCCS3(=O)=O)S(C)(=O)=O)c(C3CC3)cc12 (single isomer, unassigned) [Example 24.5, 5-Cyclopropyl-6-{[3-(1,1-dioxo-tetrahydrothiophen-2-yl)-propyI]-methanesulfonyl-amino}-2-(4-fluoro-phenyl)-furo[2,3-b]pyridine-3-carboxylic acid methylamide]
IC50 (HCV polymerase): 1 nM
IC50 [1]: ≤ 100 nM
